# Results published in patent US12358954B2, “Capsid-modified rAAV vector compositions and methods therefor” (priority 2012, dated 2025).
# Experiments:
# HeLa cells = test: AAV-EGFP transduction of HeLa cells in the presence of NF-κB modulators; assay type: cell-based, human
# Procedure: (§1) Recombinant AAV Vector Transduction Assays in Vitro. Optimal concentration of NF-κB-modulating compounds was determined by a cell viability assay with tenfold-dilutions from the IC50 or were used as described previously (Wu and Miyamoto, 2008; Kumar et al., 2008). VP16 or Bay11 (10 or 5 μM, final concentration), and PDTC (50 or 25 μM final concentration) were used either alone or in activator/inhibitor combinations. For transduction experiments, approximately 1×10^5 HeLa cells were either pre-treated with these compounds 24 hrs prior to vector infection. Cells were transduced with 500 or 2,000 vector genomes (vgs) per cell of recombinant WT-AAV or TM-AAV vectors encoding the EGFP transgene as described previously (Markusic et al., 2010). After 7 days of culture, primary human dendritic cells were transduced with AAV vectors at 2000 vgs/cell and incubated for 48 hrs. Transgene expression was assessed as total area of green fluorescence (pixel^2) per visual field (mean±SD), or by flow cytometry. Analysis of variance (ANOVA) was used to compare between test results and the control and they were determined to be statistically significant.
# [1] = system: primary human dendritic cells; test: AAV-EGFP transduction of primary human dendritic cells with NF-κB modulators (flow cytometry); assay type: cell-based; details: scAAV-transduced DCs treated with cytokines; Bay11 row: cytokines plus Bay11
# Procedure: as §1
# Cells, Antibodies and Chemicals. […]
# [2] = system: primary human dendritic cells; test: FACS analyses of markers of maturation (CD83, CD86) of primary human dendritic cells; assay type: cell-based
# Procedure: Cells, Antibodies and Chemicals. HeLa cells were obtained from the American Type Culture Collection (Rockville, Md., USA) and maintained as monolayer cultures in Iscove's-modified Dulbecco's medium (IMDM, Invitrogen, Inc., Carlsbad, Calif., USA) supplemented with 10% newborn calf serum (NCS) (Lonza, Inc., Basel, SWITZERLAND) and antibiotics. Leukapheresis-derived PBMCs were resuspended in serum-free AIM-V medium (Lonza, Inc.) and semi-adherent cell fractions were incubated in serum-free AIM-V medium supplemented with recombinant human IL-4 (500 U/mL) and GM-CSF (800 U/mL) (R&D Systems, MN, USA). Cells were treated with NF-κB modulators ([…]), and cytokines cocktail including 10 ng/mL TNF-α, 10 ng/mL IL-1, 10 ng/mL IL-6, […] (R&D Systems) for 20 hr. Cells were harvested, characterized to ensure they met the typical phenotype of mature DCs (CD83, RPE, murine IgG1, CD86, FITC, murine IgG1; Invitrogen, Inc.). All primary and secondary antibodies were purchased from Cell Signaling Technology, Inc. (Danvers, Mass., USA) or Santa Cruz Biotechnology, Inc (Santa Cruz, Calif., USA). NF-kB activators [Etoposide (VP16), Aphidicolin, Hydroxyurea (HU)] and NF-kB inhibitors [Bay11-7082 (Bay11), Pyrrolidine dithiocarbamate (PDTC)] were purchased from Sigma-Aldrich Co. (St. Louis, Mo., USA). These compounds were re-suspended in either DMSO (Sigma-Aldrich Co.) or in sterile, DNAase-, RNAase-free water (Invitrogen, Inc.) as per the manufacturer's instructions.
# [3] = Mature DCs + AAV + Cytokines + modulator
smiles,measurement,setting,value
"Cc1ccc(S(=O)(=O)/C=C/C#N)cc1 [Bay11, Bay11-7082]","AAV vector-mediated EGFP expression, fold augmentation","HeLa cells; HeLa, scAAV-EGFP",totally ablated
same,VP16-mediated augmented transgene expression,HeLa cells; activator/inhibitor combination,completely ablated
same,transgene expression in DCs,[1],~12%
same,"maturation of DCs (CD83, CD86)",[2],inhibition of cytokine-mediated maturation
same,Geometric means of levels of expression in cells expressing CD83,[2]; [3],16.88
same,Geometric means of levels of expression in cells expressing CD86,[2]; [3],10.11
